Source: paper PMC2895411 (Journal of medicinal chemistry, 2010)
Entries after “also recorded” stand apart in the source; their conditions may differ.

What follows are compounds tested against T1, human TLR7 (Homo sapiens, UniProt Q9NYK1) (assay: NF-κB induction, human TLR7-specific reporter gene assay). Conditions: not given.
T1 sequence (Q9NYK1 27-1049): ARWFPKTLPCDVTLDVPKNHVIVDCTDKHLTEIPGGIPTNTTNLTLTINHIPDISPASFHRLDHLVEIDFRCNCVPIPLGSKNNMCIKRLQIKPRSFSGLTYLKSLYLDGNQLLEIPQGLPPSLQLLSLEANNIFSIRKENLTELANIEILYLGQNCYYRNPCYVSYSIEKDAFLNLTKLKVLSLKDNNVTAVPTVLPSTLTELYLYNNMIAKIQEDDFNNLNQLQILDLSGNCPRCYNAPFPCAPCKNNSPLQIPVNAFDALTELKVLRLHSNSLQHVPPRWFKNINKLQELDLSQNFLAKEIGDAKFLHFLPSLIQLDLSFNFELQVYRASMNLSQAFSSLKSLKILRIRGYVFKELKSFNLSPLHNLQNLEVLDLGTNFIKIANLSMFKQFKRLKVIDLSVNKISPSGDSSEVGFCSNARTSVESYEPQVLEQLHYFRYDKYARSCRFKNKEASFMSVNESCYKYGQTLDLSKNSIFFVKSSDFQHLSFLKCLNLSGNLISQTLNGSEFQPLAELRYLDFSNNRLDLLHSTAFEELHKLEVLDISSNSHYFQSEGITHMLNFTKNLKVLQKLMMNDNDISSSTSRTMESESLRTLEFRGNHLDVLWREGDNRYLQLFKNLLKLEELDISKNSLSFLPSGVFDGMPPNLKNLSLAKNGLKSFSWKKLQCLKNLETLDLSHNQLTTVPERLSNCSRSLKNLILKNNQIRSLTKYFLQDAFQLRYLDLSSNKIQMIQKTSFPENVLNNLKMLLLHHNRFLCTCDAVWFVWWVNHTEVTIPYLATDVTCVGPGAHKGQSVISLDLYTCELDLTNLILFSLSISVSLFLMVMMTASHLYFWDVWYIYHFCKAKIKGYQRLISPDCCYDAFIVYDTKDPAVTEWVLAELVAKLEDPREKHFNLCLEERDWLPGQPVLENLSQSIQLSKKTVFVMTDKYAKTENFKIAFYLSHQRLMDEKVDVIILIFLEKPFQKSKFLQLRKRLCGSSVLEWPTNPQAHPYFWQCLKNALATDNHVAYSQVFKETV
Assay type: cell-based
In the case of `CC(C)Cn1cnc2c(N)nc3ccccc3c21` [Compound 1, Imiquimod, reference compound], the EC50 is reported as ~2000 nM.

Same assay, conditions: fold greater activity than 2
`CCCCCc1nc2c(N)nc3ccccc3c2n1Cc1ccccc1` [Compound 32, 1-Benzyl-2-pentyl-1H-imidazo[4,5-c]quinolin-4-amine] was tested, and the “TLR7 activity relative to compound 2” value was “twenty-fold greater”.

Same assay, conditions: human TLR7 reporter gene assay
`CC/N=C(/NCCCN(C)C)N(CC)Cc1nc2c(N)nc3ccccc3c2n1CC(C)(C)O` [Compound 6, 1-((4-Amino-1-(2-hydroxy-2-methylpropyl)-1H-imidazo[4,5-c]quinolin-2-yl)methyl)-3-(3-(dimethylamino)propyl)-1,2-diethylguanidine] was tested, and the “TLR7-agonistic activity, result in words” value was “bereft of activity”.
With `Clc1nc2ccccc2c2c1nnn2Cc1ccccc1` [Compound 55, 1-Benzyl-4-chloro-1H-[1,2,3]triazolo[4,5-c]quinoline] the “TLR7-agonistic activity, result in words” value was “completely inactive”.
`CCN(CCCNC(=S)NCCCNCCCCNCCCN)Cc1nc2c(N)nc3ccccc3c2n1CC(C)(C)O` [Compound 16, 1-(3-(((4-amino-1-(2-hydroxy-2-methylpropyl)-1H-imidazo[4,5-c]quinolin-2-yl)methyl)(ethyl)amino)propyl)-3-(3-(4-(3-aminopropylamino)butylamino)propyl) thiourea] was tested, and the “TLR7-agonistic activity, result in words” value was “inactive”.
In the case of `CCCCc1nc2c(NO)nc3ccccc3c2n1Cc1ccccc1` [Compound 48, N-(1-Benzyl-2-butyl-1H-imidazo[4,5-c]quinolin-4-yl)hydroxylamine], the “TLR7-agonistic activity, result in words” value is reported as “substantially weaker”.
For `CCCCCCCCCCCCCCCC(=O)N(CC)Cc1nc2c(N)nc3ccccc3c2n1CC(C)(C)O` [Compound 5, N-((4-Amino-1-(2-hydroxy-2-methylpropyl)-1H-imidazo[4,5-c]quinolin-2-yl)methyl)-N-ethylpalmitamide], the “TLR7-agonistic activity, result in words” value was “bereft of activity”.
For `Nc1nc2ccccc2c2c1nnn2Cc1ccccc1` [Compound 56, 1-Benzyl-1H-[1,2,3]triazolo[4,5-c]quinolin-4-amine], the “TLR7-agonistic activity, result in words” value was “completely inactive”.
`CCCNC(=O)n1c(=O)n(Cc2ccccc2)c2c3ccccc3ncc21` [Compound 57, 1-Benzyl-2-oxo-N-propyl-1H-imidazo[4,5-c]quinoline-3(2H)-carboxamide] was tested, and the “TLR7-agonistic activity, result in words” value was “completely inactive”.
In the case of `C#CCCc1nc2c(N)nc3ccccc3c2n1Cc1ccccc1` [Compound 43, 1-Benzyl-2-(but-3-ynyl)-1H-imidazo[4,5-c]quinolin-4-amine], the “TLR7-agonistic activity, result in words” value is reported as “decrease in potency”.
For `CCCCCCCCCCCNCc1nc2c(N)nc3ccccc3c2n1CC(C)(C)O` [Compound 22, 1-(4-Amino-2-((undecylamino)methyl)-1H-imidazo[4,5-c]quinolin-1-yl)-2-methylpropan-2-ol], the “TLR7-agonistic activity, result in words” value was “complete loss of activity; also recorded: completely inactive”.
For `CCNCc1nc2c(N)nc3ccccc3c2n1Cc1ccccc1` [Compound 52, 1-Benzyl-2-((ethylamino)methyl)-1H-imidazo[4,5-c]quinolin-4-amine], the “TLR7-agonistic activity, result in words” value was “very active”.
`CCCCc1nc2c(NN)nc3ccccc3c2n1Cc1ccccc1` [Compound 49, 1-Benzyl-2-butyl-4-hydrazinyl-1H-imidazo[4,5-c]quinoline] was tested, and the “TLR7-agonistic activity, result in words” value was “substantially weaker”.
For `CCCCCc1nc2c(-c3ccccc3)nc3ccccc3c2n1Cc1ccccc1` [Compound 47, 1-Benzyl-2-pentyl-4-phenyl-1H-imidazo[4,5-c]quinoline], the “TLR7-agonistic activity, result in words” value was “completely inactive”.
For `CCCCc1nc2cnc3ccccc3c2n1Cc1ccccc1` [Compound 50, 1-Benzyl-2-butyl-1H-imidazo[4,5-c]quinoline], the “TLR7-agonistic activity, result in words” value was “completely inactive”.
`CCCCCc1nc2c(O)nc3ccccc3c2n1Cc1ccccc1` [Compound 46, 1-Benzyl-2-pentyl-1H-imidazo[4,5-c]quinolin-4-ol] was tested, and the “TLR7-agonistic activity, result in words” value was “completely inactive”.
With `CCN(CCOCCOCCN)Cc1nc2c(N)nc3ccccc3c2n1CC(C)(C)O` [Compound 11, 1-(4-Amino-2-(((2-(2-(2-aminoethoxy)ethoxy)ethyl) (ethyl)amino)methyl)-1H-imidazo[4,5-c]quinolin-1-yl)-2-methylpropan-2-ol] the “TLR7-agonistic activity, result in words” value was “completely inactive”.
For `CCN(CC)Cc1nc2c(N)nc3ccccc3c2n1CC(C)(C)O` [Compound 3, 1-(4-Amino-2-((diethylamino)methyl)-1H-imidazo[4,5-c]quinolin-1-yl)-2-methylpropan-2-ol], the “TLR7-agonistic activity, result in words” value was “partial activity”.
In the case of `CCN(Cc1nc2c(N)nc3ccccc3c2n1CC(C)(C)O)C(C)=O` [Compound 4, N-((4-Amino-1-(2-hydroxy-2-methylpropyl)-1H-imidazo[4,5-c]quinolin-2-yl)methyl)-N-ethylacetamide], the “TLR7-agonistic activity, result in words” value is reported as “bereft of activity”.
With `CCCCCc1nc2c(Cl)nc3ccccc3c2n1Cc1ccccc1` [Compound 44, 1-Benzyl-4-chloro-2-pentyl-1H-imidazo[4,5-c]quinoline] the “TLR7-agonistic activity, result in words” value was “completely inactive”.
`C=CCCc1nc2c(N)nc3ccccc3c2n1Cc1ccccc1` [Compound 38, 1-Benzyl-2-(but-3-enyl)-1H-imidazo[4,5-c]quinolin-4-amine] was tested, and the “TLR7-agonistic activity, result in words” value was “decrease in potency”.
